The values below come from ChEMBL document CHEMBL1201862, “PubChem BioAssay data set” (2004).

SMILES strings stand for the structures.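 Protocol summary: plate cells (96-well), add compound at 5 concentrations, incubate 48 h, interpolate endpoints linearly. GI50 marks 50% less growth.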 Active and inactive are the calls of the source. Cut-off read from the data, not from the text of the source: active = GI50 up to about 1.1 µM and inactive = higher. Where only a bound is given, the exact number is not on record here.

What all share (assay): inhibition of tumour cell growth, NCI panel, 48 h
The subject of assay [1] is M14.
The subject of assay [2] is SR.
In assay [3] the test system is CAKI-1.
Assay [4] concerns COLO 205.
For assay [5], the system named is KM12.
For assay [6], the system named is CCRF-CEM.
The subject of assay [7] is UACC-257.
Assay [8] concerns SNB-19.
In assay [9] the test system is RPMI-8226.
Assay [10] deals with K562.
Assay [11] deals with SK-MEL-28.
Assay [12] has as its system MOLT-4.
Assay [13] relates to SF-295.
Assay [14] deals with OVCAR-5.
Assay [15] deals with DU-145.
Assay [16] deals with SF-539.
Assay [17] concerns MCF7.
The subject of assay [18] is OVCAR-4.
Assay [19] concerns SNB-75.

`O=C(/C=C/c1ccc2c(c1)OCO2)Cc1nc2ncccc2[nH]c1=O`: the GI50 in assay [1] was > 100 µM (inactive); in assay [2] it was 77.1 µM (inactive); in assay [3], > 100 µM (inactive); in assay [4], 70.3 µM (inactive); in [5] it was 61.1 µM (inactive); in assay [6] it was > 100 µM (inactive). Besides, the GI50 in assay [7] is > 100 µM (inactive); in assay [8], 63.8 µM (inactive); in assay [9] it was > 100 µM (inactive); in assay [10], 5.55 µM (inactive); in [11], > 100 µM (inactive); in assay [12] it was > 100 µM (inactive). The GI50 is 69.3 µM (inactive) in [13]; > 100 µM (inactive) in assay [14]; > 100 µM (inactive) in assay [15]; 53.7 µM (inactive) in assay [16]; > 100 µM (inactive) in assay [17].
Turning to `O=c1[nH]n(Cc2ccccc2)c2ccc([N+](=O)[O-])cc12`, the GI50 in assay [1] was 46.2 µM (inactive); in assay [2], 69.7 µM (inactive); in [3] it was 59.2 µM (inactive); in assay [4], > 100 µM (inactive); in assay [5], 64.4 µM (inactive); in assay [6], 55.2 µM (inactive). In addition, the GI50 in [7] was 60.8 µM (inactive); in assay [8] it was > 100 µM (inactive); in assay [9] it was 48.5 µM (inactive); in assay [10] it was 28.8 µM (inactive); in assay [18] it was > 100 µM (inactive); in assay [11], 57.9 µM (inactive). For the same molecule, the GI50 in assay [12] was 34.7 µM (inactive); in assay [13], 66.8 µM (inactive); in assay [14], > 100 µM (inactive); in assay [15] it was > 100 µM (inactive); in assay [16] it was 87.1 µM (inactive); in assay [17], 28.2 µM (inactive).
For `COC(COC(=O)N1CCN(C=O)CC1)C1=C(N2CC2)C(=O)C(C)=C(N2CC2)C1=O` (stereo not given), the GI50 was 0.202 µM (active) in assay [1]; < 0.01 µM (active) in [2]; 0.12 µM (active) in assay [3]; 0.272 µM (active) in [4]; 0.551 µM (active) in [5]; 0.13 µM (active) in assay [6]. Moreover, the GI50 in [7] was 0.309 µM (active); in assay [8] it was 0.437 µM (active); in assay [9], 0.362 µM (active); in assay [10], 0.462 µM (active); in [18], 0.585 µM (active); in assay [11], 1.27 µM (inactive). In addition, the GI50 is 0.138 µM (active) in assay [12]; 1.22 µM (inactive) in [13]; 2.56 µM (inactive) in assay [14]; 0.0472 µM (active) in assay [15]; 0.0632 µM (active) in [16]; 0.0313 µM (active) in assay [17].
With `O=C1CCC2(CC1)Cc1ccccc1C2O` (stereo not given), the GI50 in assay [1] is > 100 µM (inactive); in assay [2], > 100 µM (inactive); in assay [3], > 100 µM (inactive); in assay [4], > 100 µM (inactive); in [19] it was < 0.01 µM (active); in [5] it was > 100 µM (inactive). For the same molecule, the GI50 in assay [6], in assay [7], in [8], in assay [10], in assay [18] and in [11] was > 100 µM (inactive) throughout. Besides, the GI50 in assay [12], in [13], in assay [14], in [15], in assay [16] and in assay [17] was > 100 µM (inactive) throughout.
As for `O=C(CNc1ccccc1Cl)Nn1c(-c2ccccc2)nc2ccccc2c1=O`, the GI50 is > 10 µM (inactive) in assay [1]; 23.4 µM (inactive) in assay [2]; 17.9 µM (inactive) in assay [4]; 16.8 µM (inactive) in [19]; 28.6 µM (inactive) in assay [5]; 13.4 µM (inactive) in assay [6]. For the same molecule, the GI50 in assay [7] was 50.6 µM (inactive); in assay [8], > 10 µM (inactive); in [9] it was 28.7 µM (inactive); in assay [10], 23.2 µM (inactive); in [18], 26.4 µM (inactive); in [11], 21.2 µM (inactive). Besides, the GI50 was 13.2 µM (inactive) in assay [12]; 31.4 µM (inactive) in assay [13]; > 10 µM (inactive) in assay [14]; > 100 µM (inactive) in [15]; 21.6 µM (inactive) in [16]; 14.8 µM (inactive) in [17].
Take `CC(C)(C)NC(=O)[C@H]1CC[C@H]2[C@@H]3CC=C4NC(=O)CC[C@]4(C)[C@H]3CC[C@]12C`: the GI50 in assay [1] is > 100 µM (inactive); in assay [2], > 100 µM (inactive); in assay [4], > 100 µM (inactive); in [19], 22.6 µM (inactive); in [5], > 100 µM (inactive); in assay [6], > 100 µM (inactive). Moreover, the GI50 in assay [7] was 69.3 µM (inactive); in assay [8], > 100 µM (inactive); in [9] it was > 100 µM (inactive); in assay [10], > 100 µM (inactive); in assay [18], 50.1 µM (inactive); in assay [11] it was > 100 µM (inactive). The GI50 was > 100 µM (inactive) in [12]; > 100 µM (inactive) in [13]; > 100 µM (inactive) in assay [14]; > 100 µM (inactive) in [15]; > 100 µM (inactive) in assay [16]; 32.4 µM (inactive) in assay [17].
As to `CN(C)CCOc1ccc(I)cc1Cc1ccccc1`, the GI50 in assay [1] was 2.66 µM (inactive); in assay [2], 2.65 µM (inactive); in [4], 11.9 µM (inactive); in assay [19], 1.52 µM (inactive); in assay [5], 13.7 µM (inactive); in [6], 4.85 µM (inactive). In addition, the GI50 is 15.2 µM (inactive) in [7]; 13.7 µM (inactive) in [8]; 6.34 µM (inactive) in [9]; 3.39 µM (inactive) in assay [10]; 11.8 µM (inactive) in assay [18]; 4.74 µM (inactive) in assay [11]. The GI50 in [12] is 5.21 µM (inactive); in assay [13], 15.4 µM (inactive); in assay [14], 14.7 µM (inactive); in assay [15], 17.1 µM (inactive); in assay [16] it was 13.8 µM (inactive); in assay [17] it was 13 µM (inactive).
`CC(C)(C)n1c(=O)n(C(=O)C(Cl)(Cl)Cl)n(C(=O)C(Cl)(Cl)Cl)c1=O`: the GI50 in [1], in [2], in assay [3], in [4], in assay [5] and in [6] was > 100 µM (inactive) each time. Further, the GI50 in [7], in [8], in [9], in assay [10], in assay [18] and in assay [11] was > 100 µM (inactive) throughout. In addition, the GI50 in assay [12], in assay [13], in assay [14], in [15], in assay [16] and in [17] was > 100 µM (inactive) in each case.
As for `O=c1[nH]nc(-c2ccccc2)n1/N=C/c1c(O)ccc2ccccc12`, the GI50 in [1] is 93.8 µM (inactive); in [2], 72.6 µM (inactive); in assay [4], 31.8 µM (inactive); in assay [19] it was 31.7 µM (inactive); in [5], 6.75 µM (inactive); in assay [6] it was > 100 µM (inactive). Further, the GI50 is 68.5 µM (inactive) in [7]; 24.9 µM (inactive) in [8]; 82.2 µM (inactive) in [9]; 60 µM (inactive) in assay [10]; 15.4 µM (inactive) in assay [18]; 75.7 µM (inactive) in assay [11]. In addition, the GI50 was > 100 µM (inactive) in assay [12]; 29 µM (inactive) in [13]; > 100 µM (inactive) in assay [14]; 76.4 µM (inactive) in assay [15]; 31.2 µM (inactive) in assay [16]; 59.7 µM (inactive) in assay [17].
As to `Cc1c(-c2ccccc2)[nH]c2cn[nH]c(=O)c12`, the GI50 was > 100 µM (inactive) in assay [1]; 88.7 µM (inactive) in assay [2]; > 100 µM (inactive) in assay [3]; > 100 µM (inactive) in assay [4]; 83.2 µM (inactive) in assay [5]; 57.1 µM (inactive) in assay [6]. In addition, the GI50 in assay [7] is > 100 µM (inactive); in assay [8], > 100 µM (inactive); in assay [9], 74 µM (inactive); in assay [10], 99.8 µM (inactive); in [11], > 100 µM (inactive); in assay [12], 83.2 µM (inactive). Besides, the GI50 in assay [13] was 41 µM (inactive); in [14] it was > 100 µM (inactive); in assay [15], > 100 µM (inactive); in [16], > 100 µM (inactive); in [17], 45.1 µM (inactive).
In the case of `CN(C)CCNC(=O)c1cccc2c(NC(CCCNC(=N)N)C(=O)O)c3ccccc3[n+](C)c12` (stereo not given), the GI50 in assay [1] was > 100 µM (inactive); in assay [2], > 100 µM (inactive); in assay [4] it was 38.9 µM (inactive); in assay [19], 28.1 µM (inactive); in assay [5] it was > 100 µM (inactive); in assay [7], > 100 µM (inactive). The GI50 in assay [8] was > 100 µM (inactive); in assay [9], > 100 µM (inactive); in assay [10], > 100 µM (inactive); in [18], > 100 µM (inactive); in assay [11], > 100 µM (inactive); in [12], 47.8 µM (inactive). The GI50 in assay [13] is > 100 µM (inactive); in [14], > 100 µM (inactive); in assay [15], 70.1 µM (inactive); in assay [16], 83.8 µM (inactive); in [17] it was 45.4 µM (inactive).
